Patent publication US20230226105A1, “METHODS AND COMPOSITIONS FOR TREATING CANCER” (ReversPAH LLC, priority 2021, published 2023)

Columns and labels:
[1] = Stability of TTM filled in enteric capsules exposed to stomach acid / simulated stomach acid; assay type: physicochemical; settings: additional enteric coatings applied; after one hour
Method: The present inventors have determined that while the designed disintegration properties of an enteric capsule remain stable for 2 hours and the designed enteric capsule may have a diffusion rate below 7.5% in the first two hours, the inventors research confirmed in fact stomach acid or moisture from the stomach does enter the capsule, and the enteric interior capsule walls become wet, thereby subjecting the TTM to the acid or moisture, causing rapid degradation of the enteric capsule from the chemical reaction with the moistened TTM.
The present inventors have determined that the TTM releases H2S gas when a small amount of stomach acid or moisture enters the enteric capsule, not only causing degradation of the TTM, but also the moisture seeping through the capsule causes TTM to release H2S as part of the degradation process, which then comes in contact with the inside of the enteric capsule. This dissolves the enteric capsule from inside the capsule and leads to a catastrophic capsule failure within 15 to 30 minutes.
This is not a preferred solution as the TTM is getting wet inside the capsule and degrading, creating the problem of not knowing how much TTM will be left to be absorbed by the patient after the tablet leaves the stomach. Such a reaction reduces the amount of drug being available to the patient, thereby reducing the drugs intended effect due to less TTM available. […]

[2] = Solubility of crushed and screened TTM particles in water; assay type: physicochemical; settings: particles after 70-mesh screen
Source text: The present inventors undertook a study to determine the size of the TTM particles after a crushing and screening process using a 70-mesh screen that would allow a maximum particle size of 210 micrometers. The size range was as follows: 10% under 13.3 μm; 50% under 44.5 μm; 90% under 122 μm.
This is not unsurprising, as saturation will occur in fluids as a known principle and does illustrate enough fluid is required to be available to dissolve the administered TTM to create optimal bioavailability. Further, larger particles with […] surface area would be expected to remain after the smaller particles dissolve.

[SH-].[SH-].[S]=[Mo]=[S] [TTM, tetrathiomolybdate]
TTM leakage from enteric capsule with additional enteric coatings [1]: still leaking out | solubility in water ([2]; 60 mg in 300 ml water): dissolved fully over time | solubility in water ([2]; 160 mg in 300 ml of water): did not fully dissolve
